Measurements as given in patent US6348317B1, “Fluorescent and DNA cleavage properties of peptide/dye conjugates” (The Arizona Board of Regents, priority 1999, dated 2002).

What was measured:
GRE3 dsDNA = experiment: Photocleavage at 514 nm, PAGE analysis; type: biochemical
Experimental: (§1) The purified DNA strands shown in FIG. 2 were 5′^-32P-end-labeled using T4 polynucleotide kinase and purified as described above. Oxygen removal was performed by bubbling argon through the samples. Irradiations were performed on […] samples in a 1.0 mL glass cuvette fit with a septum using an argon-ion laser at 514 nm with a power of 300 mW/cm^2. After irradiation, samples were divided in half and one portion treated with piperidine, the other immediately frozen. Piperidine treatment consisted of adding an equal volume of freshly prepared 20% piperidine in water to the sample followed by heating at 90° C. for 30 minutes. Both the treated and untreated fractions were dried under vacuum. To each dried sample was added […] of 80% formamide in water. The products of the photocleavage experiments were analyzed on a 15% polyacrylamide (19:1) vertical sequencing gel with dimensions 21 cm×40 cm×0.4 mm. Maxam-Gilbert A+G and C+T sequencing reactions were used as a reference. A. M. Maxam, et al., Meth. Enzymol. 65:499-560 (1980). Gels were run at 2000V for 1.5-2 hours. Gels were dried and exposed to a phosphorimaging screen for 4 hours and analyzed on a Molecular Dynamics Storm-840 gel scanner in phosphorimaging mode.
Photocleavage of TO-ZF conjugate. We examined the photoinduced cleavage of 5′-32P-end-labeled dsDNA fragments containing the dsDNA sequences GRE1, GRE2 and GRE3 in the presence of either unconjugated TO or TO-ZF. […] We have performed similar photocleavage measurements of the complementary strands in the dsDNA duplexes used in each case. […] After irradiation of TO-ZF bound to dsDNA in Tris buffer solution at 514 nm (514 nm is in the main band of the absorbance spectrum of intercalated thiazole orange as shown in FIG. 3), the photo-products were denatured and separated using denaturing polyacrylamide gel electrophoresis (PAGE). […]
To explore other possible mechanisms of thiazole orange mediated photocleavage in the region on the 5′-side of the GRE target sequence, the guanine located within the GRE (5′-TGTTCT-3′) in the GRE1 dsDNA fragment was changed to an adenine to give GRE3 (FIG. 2). […] Fluorescence measurements of TO-ZF binding to GRE1 and GRE3 target sequences (FIG. 5A) show only a modest difference in the dissociation constant between the two sequences. Thus the measured changes in the photocleavage products between GRE1 and GRE3 are not an artifact of strong differences in the binding affinity of TO-ZF between these sequences. […] The total chemical yield of the piperidine dependent reactions in these bands, measured as the number of fluorescence counts in product bands divided by the total counts of a given lane, increased three-fold from 2% in GRE1 (described above) to 6% in GRE3 for samples reacted in the presence of oxygen. […]

GRE1 dsDNA = experiment: Photocleavage at 514 nm, PAGE analysis; type: biochemical
Experimental: as §1, with “Maxam-Gilbert A+G and C+T sequencing reactions were used as a reference. A. M. Maxam, et al., Meth. Enzymol. 65:499-560 (1980). Gels were run at 2000V for 1.5-2 hours.” left out
Photocleavage of TO-ZF conjugate. […] After irradiation of TO-ZF bound to dsDNA in Tris buffer solution at 514 nm (514 nm is in the main band of the absorbance spectrum of intercalated thiazole orange as shown in FIG. 3), the photo-products were denatured and separated using denaturing polyacrylamide gel electrophoresis (PAGE). […]

[1] = samples reacted in the presence of oxygen

In the case of “TO-ZF: 29 amino acid single zinc finger from residues 438-465 of glucocorticoid receptor, thiazole orange coupled to a lysine ε-amine”, the “pattern of photo-induced cleavage” value (GRE3 dsDNA; 514 nm, gel electrophoresis) is reported as “a confined group of bands flanking the altered GRE sequence which are only partially piperidine dependent”, the “increase in band intensity of strand cleavage in the presence of D2O” value (GRE3 dsDNA; D2O rather than H2O in the buffer) is reported as no more than 25% and the “lowering of chemical yield in the absence of oxygen” value (GRE3 dsDNA; piperidine treated samples, absence of oxygen) is reported as 10-20%. The “total chemical yield of the piperidine dependent reactions” value (GRE3 dsDNA; [1]) was 6%, the site of photocleavage (GRE1 dsDNA; 514 nm irradiation, piperidine treatment) was “piperidine dependent cleavage to occur predominantly at the guanine within the GRE” and the “total chemical yield of the piperidine dependent reactions” value (GRE1 dsDNA; [1]) was 2%.
